Experimental findings from patent US12336981B2, “Compounds and compositions for the inhibition of NAMPT” (Valo Health, Inc., priority 2010, dated 2025) are described below.

One assay has as its target T1, NAMPT (Homo sapiens, UniProt P43490).
T1 construct: His tag; host or cells: E. coli
As to the kind of experiment: Biochemical inhibition assay: NAMPT enzymatic reaction, NMN quantified by mass spectrometry. As to conditions: read-out: Biochem IC50. Put shortly:
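Inhibition of E. coli-expressed His-tagged human NAMPT, measured as NMN formation by mass spectrometry after a 30 min room-temperature reaction containing 1 μM NAM, 100 μM PRPP and 2.5 mM ATP.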

A further assay has as its system A2780 cells. As to the kind of experiment: In-vitro cell proliferation assay (SRB), A2780 cells. The settings on record: Homo sapiens, A2780, 72 h, A2780 cells, 72 hours, read-out: A2780 IC50. Format: cell-based. Put shortly:
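SRB read-out: 6% TCA fix 1 h at 4° C., stain, Tris solubilize, A570. Media-only background subtracted; % inhibition from two compound concentrations.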

pIC50: −log10 of the molar value. Where two headings read alike, the source gives them in different places.

T1 sequence (P43490 whole entry): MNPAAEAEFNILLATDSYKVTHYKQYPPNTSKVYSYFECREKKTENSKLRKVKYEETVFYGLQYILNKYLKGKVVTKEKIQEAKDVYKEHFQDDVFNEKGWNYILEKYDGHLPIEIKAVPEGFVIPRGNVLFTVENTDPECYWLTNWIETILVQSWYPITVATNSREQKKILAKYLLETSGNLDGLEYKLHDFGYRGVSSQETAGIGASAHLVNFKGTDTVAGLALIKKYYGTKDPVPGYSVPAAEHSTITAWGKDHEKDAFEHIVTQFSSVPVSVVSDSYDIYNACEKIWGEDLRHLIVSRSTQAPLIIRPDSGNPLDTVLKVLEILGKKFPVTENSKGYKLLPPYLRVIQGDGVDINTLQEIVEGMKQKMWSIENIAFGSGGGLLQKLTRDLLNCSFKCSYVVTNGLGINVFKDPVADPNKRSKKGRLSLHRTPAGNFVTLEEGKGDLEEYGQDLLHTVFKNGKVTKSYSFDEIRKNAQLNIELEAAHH

For orientation: pIC50 means −log10 of the IC50, conventionally taken in molar units. As to `O=C(NCc1ccc(S(=O)(=O)c2ccccc2OCc2ccccc2)cc1)c1cc2cnccc2[nH]1` [N-[(4-{[2-(benzyloxy)benzene]sulfonyl}phenyl)methyl]-1H-pyrrolo[3,2-c]pyridine-2-carboxamide], the pIC50 is 7.74 on NAMPT (NAMPT enzymatic reaction) and 7.48 in the assay on A2780 cells (SRB assay).

On to `CN(C)C(=O)c1ccccc1S(=O)(=O)c1ccc(CNC(=O)c2cc3cnccc3[nH]2)cc1` [N-[(4-{[2-(dimethylcarbamoyl)benzene]sulfonyl}phenyl)methyl]-1H-pyrrolo[3,2-c]pyridine-2-carboxamide], for which the negative-log IC50 (pIC50) at NAMPT (NAMPT enzymatic assay) was 6.00 to 7.00; on NAMPT (NAMPT enzymatic reaction) it was 6.02; with A2780 cells (SRB assay) it was 6.32; in the assay on A2780 cells (SRB), 6.00 to 7.00.

`CN(C)C(=O)c1ccccc1S(=O)(=O)c1ccc(CNC(=O)c2ccc3nccn3c2)cc1` [N-[(4-{[2-(dimethylcarbamoyl)benzene]sulfonyl}phenyl)methyl]imidazo[1,2-a]pyridine-6-carboxamide]: the pIC50 at NAMPT (NAMPT enzymatic assay) was below 6.78; in the assay on A2780 cells (SRB) it was 6.00 to 7.00.

Consider `CN(C)C(=O)c1ccccc1S(=O)(=O)c1ccc(CNC(=O)c2cnc3nccn3c2)cc1` [N-[(4-{[2-(dimethylcarbamoyl)benzene]sulfonyl}phenyl)methyl]imidazo[1,2-a]pyrimidine-6-carboxamide], for which the pIC50 on NAMPT (NAMPT enzymatic assay) is 6.00 to 7.00; in the assay on A2780 cells (SRB) it was 5.00 to 6.00.

Regarding `O=C(NCc1ccc(S(=O)(=O)Nc2ccccc2CO)cc1)c1cc2cnccc2[nH]1` [N-[(4-{[2-(hydroxymethyl)phenyl]sulfamoyl}phenyl)methyl]-1H-pyrrolo[3,2-c]pyridine-2-carboxamide], the figures for the pIC50 on NAMPT (NAMPT enzymatic reaction) and with A2780 cells (SRB assay) were 7.52 and 8.22, respectively.

Regarding `CNS(=O)(=O)c1ccccc1S(=O)(=O)c1ccc(CNC(=O)c2cnc3[nH]ncc3c2)cc1` [N-[(4-{[2-(methylsulfamoyl)benzene]sulfonyl}phenyl)methyl]-1H-pyrazolo[3,4-b]pyridine-5-carboxamide], the pIC50 at NAMPT (NAMPT enzymatic assay) is below 6.78; in the assay with A2780 cells (SRB) it was below 5.00.

On to `CNS(=O)(=O)c1ccccc1S(=O)(=O)c1ccc(CNC(=O)c2cc3cnccc3[nH]2)cc1` [N-[(4-{[2-(methylsulfamoyl)benzene]sulfonyl}phenyl)methyl]-1H-pyrrolo[3,2-c]pyridine-2-carboxamide], for which the values for the negative logarithm of the IC50 (pIC50) on NAMPT (NAMPT enzymatic reaction) and in the assay with A2780 cells (SRB assay) were 7.12 and 6.69, respectively.

Take `O=C(NCc1ccc(S(=O)(=O)Nc2ccccc2N2CCOCC2)cc1)c1cc2cnccc2[nH]1` [N-[(4-{[2-(morpholin-4-yl)phenyl]sulfamoyl}phenyl)methyl]-1H-pyrrolo[3,2-c]pyridine-2-carboxamide]: the pIC50 at NAMPT (NAMPT enzymatic reaction) is 7.72; in the assay on A2780 cells (SRB assay) it was 7.77.

`O=C(NCc1ccc(S(=O)(=O)c2ccccc2CN2CCOCC2)cc1)c1cc2cnccc2[nH]1` [N-[(4-{[2-(morpholin-4-ylmethyl)benzene]sulfonyl}phenyl)methyl]-1H-pyrrolo[3,2-c]pyridine-2-carboxamide]: the pIC50 was 7.47 at NAMPT (NAMPT enzymatic reaction) and 8.22 in the assay with A2780 cells (SRB assay).

With `O=C(NCc1ccc(S(=O)(=O)c2ccccc2CN2CCOCC2)cc1)c1ccc2nccn2c1` [N-[(4-{[2-(morpholin-4-ylmethyl)benzene]sulfonyl}phenyl)methyl]imidazo[1,2-a]pyridine-6-carboxamide], the pIC50 at NAMPT (NAMPT enzymatic assay) was 6.87; in the assay on A2780 cells (SRB), 7.47.

On to `O=C(NCc1ccc(S(=O)(=O)c2ccccc2CN2CCOCC2)cc1)c1cc2ccncc2s1` [N-[(4-{[2-(morpholin-4-ylmethyl)benzene]sulfonyl}phenyl)methyl]thieno[2,3-c]pyridine-2-carboxamide], for which the pIC50 on NAMPT (NAMPT enzymatic reaction) was 7.89; with A2780 cells (SRB assay), 8.44.

As for `O=C(NCc1ccc(S(=O)(=O)Nc2ccccc2N2CCCCC2)cc1)c1cc2cnccc2[nH]1` [N-[(4-{[2-(piperidin-1-yl)phenyl]sulfamoyl}phenyl)methyl]-1H-pyrrolo[3,2-c]pyridine-2-carboxamide], the values for the negative-log IC50 (pIC50) at NAMPT (NAMPT enzymatic reaction) and in the assay with A2780 cells (SRB assay) were 7.14 and 8.10, respectively.
